The target in this assay is T1, human NaV1.8 (Homo sapiens, UniProt Q9Y5Y9).
T1 construct: The following NaV1.8 recombinant cell line was used for recordings: HEK-NaV1.8 (NM 006514.1); expressed in transfected cells; host or cells: HEK (recombinant cell line HEK-NaV1.8)
In words: Electrophysiology: automated whole-cell voltage-clamp (patch clamp, Qube384) recordings of sodium currents in HEK-NaV1.8 cells. The class given is cell-based. Particulars: potency data either taken from inactivated or resting state, read-out: Potency category (human NaV1.8 IC50). As for the experimental part:
Electrophysiology: Voltage-Clamp Recordings
The following NaV1.8 recombinant cell line was used for recordings: HEK-NaV1.8 (NM 006514.1) with in (NM 018400.3).
Sodium currents were measured using the patch clamp technique in the whole-cell configuration using the Qube384 (Sophion A/S, Copenhagen, Denmark) automated voltage clamp platform. “Multi hole” plates were used for the cell line expressing NaV1.8 while “single hole” plates were used for the recombinant cell lines expressing the other subtypes. Appropriate filters (for minimum seal resistance and minimum current size) and series resistance compensation (for high quality sodium channel recordings) were applied. Data was collected at ambient room temperature.
The recording extracellular solution contained (in mM): NaCl 145 mM, KCl 4 mM, CaCl2 2 mM, MgCl2 1 mM, HEPES 10 mM, Glucose 10 mM, pH 7.4 (NaOH). The intracellular recording solution contained (in mM): CsF 120 mM, CsCl 20 mM, NaCl 10 mM, EGTA 10 mM, HEPES 10 mM, pH 7.2 (CsOH). Currents were recorded at 25 kHz sampling frequency and filtered at 5 kHz. Series resistance compensation was applied at 65%.
Vehicle (VEH) is the control condition where cells are exposed to 0.3% DMSO without compound. All runs include VEH controls being exposed to the same voltage protocols to assess non-compound related phenomena such as run down and then used to isolate compound dependent effects on currents.
To check for state-dependence inhibition, the following voltage-sequence was applied every 20 seconds:
From a resting membrane potential of −120 mV, the first test pulse (P1; 20 ms to −10 mV) was applied to check for channels in the Resting State followed by a brief recovery (20 ms to −120 mV), then holding the membrane voltage to V112 (4 seconds at voltage to obtain half the channel at Rest and half Inactivated) with a subsequent second test pulse (P2; 20 ms to −10 mV) to check for channels in the Inactivated State, followed by another brief recovery (20 ms to −120 mV) and a final third test pulse (P3; 20 ms to −10 mV) to check for recovered channels.
To check for frequency-dependent inhibition, a 10 Hz protocol and a 20 Hz protocol were applied; namely,
From a resting membrane potential of −120 mV, 40-pulses (10 ms to −10 mV) was applied at 10 Hz (at 100 ms between pulses) and then at 20 Hz (at 50 ms between pulses).
Each parameter was recorded (P1, P2, P3, P40 from 10 Hz and P40 from 20 Hz) during a control period (lasting 5 minutes) when establishing the baseline and during compound period (lasting ˜12 minutes) when test compound (or vehicle) was applied. For each parameter, the value at the end of the compound period was normalized to the vehicle baseline; as follows
To adjust for any variance in the Na^+ current signal during the compound period (owing to cumulative inactivation independent of compound or shifts in biophysics over time), a dedicated segment of the recording wells in each 384 plate were dedicated to having only vehicle exposure. These vehicle-only recordings were used to correct for any apparent “run-up” or “run-down” in the experiment.
The adjusted inhibition was calculated as follows: […]
Percent inhibition was determined and IC50 values were calculated using a 4 parameter logistic model within XLFit Software (IDBS, Boston MA):
[formula] where A and B are the maximal and minimum inhibition respectively, C is the IC50 concentration and D is the (Hill) slope.
The potency data was either taken from inactivated or resting state.

The results in this text go back to patent US11999699B2, “Substituted pyrazole amides” (GRUENENTHAL GMBH, priority 2021, dated 2024).

T1 sequence (Q9Y5Y9 whole entry): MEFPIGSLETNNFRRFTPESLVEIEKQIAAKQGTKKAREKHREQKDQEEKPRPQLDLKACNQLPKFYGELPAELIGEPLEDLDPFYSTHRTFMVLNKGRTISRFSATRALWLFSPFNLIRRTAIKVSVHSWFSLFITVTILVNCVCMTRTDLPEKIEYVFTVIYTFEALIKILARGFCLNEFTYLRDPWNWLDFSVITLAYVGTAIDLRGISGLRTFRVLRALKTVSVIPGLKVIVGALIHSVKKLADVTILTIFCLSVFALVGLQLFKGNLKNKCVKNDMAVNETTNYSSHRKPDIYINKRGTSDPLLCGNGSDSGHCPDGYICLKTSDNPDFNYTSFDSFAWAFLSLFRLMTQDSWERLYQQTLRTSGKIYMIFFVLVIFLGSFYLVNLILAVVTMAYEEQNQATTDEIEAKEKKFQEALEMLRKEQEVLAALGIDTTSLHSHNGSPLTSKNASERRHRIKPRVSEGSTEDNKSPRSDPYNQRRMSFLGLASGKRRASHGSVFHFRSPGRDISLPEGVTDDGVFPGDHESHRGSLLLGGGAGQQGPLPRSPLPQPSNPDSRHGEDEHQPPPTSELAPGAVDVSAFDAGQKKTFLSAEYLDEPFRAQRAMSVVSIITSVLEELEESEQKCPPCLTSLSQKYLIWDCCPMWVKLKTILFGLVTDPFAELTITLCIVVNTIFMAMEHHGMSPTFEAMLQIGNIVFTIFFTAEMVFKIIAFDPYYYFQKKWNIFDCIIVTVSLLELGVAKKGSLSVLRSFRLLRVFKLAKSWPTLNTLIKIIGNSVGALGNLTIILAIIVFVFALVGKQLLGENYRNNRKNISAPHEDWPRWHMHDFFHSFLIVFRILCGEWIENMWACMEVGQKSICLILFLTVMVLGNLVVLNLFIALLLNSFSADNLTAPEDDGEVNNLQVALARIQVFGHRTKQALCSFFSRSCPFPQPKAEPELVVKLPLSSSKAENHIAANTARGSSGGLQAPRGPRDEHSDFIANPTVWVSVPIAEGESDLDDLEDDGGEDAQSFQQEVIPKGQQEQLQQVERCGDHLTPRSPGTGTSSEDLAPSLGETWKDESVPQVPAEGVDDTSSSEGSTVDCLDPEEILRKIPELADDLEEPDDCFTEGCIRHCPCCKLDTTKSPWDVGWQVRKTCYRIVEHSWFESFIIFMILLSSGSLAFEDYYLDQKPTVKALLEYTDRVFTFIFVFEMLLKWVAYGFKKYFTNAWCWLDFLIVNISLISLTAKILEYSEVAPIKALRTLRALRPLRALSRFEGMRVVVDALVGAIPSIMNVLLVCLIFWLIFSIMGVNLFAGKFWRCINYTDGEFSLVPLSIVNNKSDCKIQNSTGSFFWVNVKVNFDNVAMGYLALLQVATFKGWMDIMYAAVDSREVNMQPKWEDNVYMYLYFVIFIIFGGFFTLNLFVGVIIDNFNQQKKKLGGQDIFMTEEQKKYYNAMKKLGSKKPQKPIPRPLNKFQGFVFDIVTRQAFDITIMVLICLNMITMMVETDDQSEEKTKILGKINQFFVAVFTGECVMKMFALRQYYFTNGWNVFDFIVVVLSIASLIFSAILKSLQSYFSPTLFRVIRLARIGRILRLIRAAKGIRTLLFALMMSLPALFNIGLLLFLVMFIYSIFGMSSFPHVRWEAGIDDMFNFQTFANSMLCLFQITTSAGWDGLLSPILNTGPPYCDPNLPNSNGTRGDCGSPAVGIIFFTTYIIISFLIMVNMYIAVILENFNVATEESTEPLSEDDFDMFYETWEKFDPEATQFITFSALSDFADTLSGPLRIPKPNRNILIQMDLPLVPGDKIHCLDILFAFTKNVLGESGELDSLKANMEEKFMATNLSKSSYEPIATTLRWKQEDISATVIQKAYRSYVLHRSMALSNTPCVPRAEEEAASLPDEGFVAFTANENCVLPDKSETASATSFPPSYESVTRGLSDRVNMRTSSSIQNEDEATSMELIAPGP
T1 sequence (Q9NY72 23-215 partner): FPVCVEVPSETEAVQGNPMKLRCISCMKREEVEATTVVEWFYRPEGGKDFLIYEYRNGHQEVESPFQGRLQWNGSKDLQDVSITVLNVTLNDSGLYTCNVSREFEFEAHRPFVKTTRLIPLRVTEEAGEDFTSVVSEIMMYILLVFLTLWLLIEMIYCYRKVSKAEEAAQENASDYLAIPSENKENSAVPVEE

For `Cc1nn(CC2CCC(F)(F)CC2)c(C(=O)Nc2ccnc(C#N)c2)c1C` [SC-231, N-(2-cyanopyridin-4-yl)-1-((4,4-difluorocyclohexyl)methyl)-3,4-dimethyl-1H-pyrazole-5-carboxamide], the IC50 (in general, the midpoint of a concentration-inhibition curve) is 1000 to 10000 nM.

With `Cc1c(C(C)(F)F)nn(C[C@@H]2C[C@@H]2C(F)F)c1C(=O)Nc1ccnc(C(N)=O)c1` (relative stereo) [SC-206, 4-(3-(1,1-difluoroethyl)-1-((2-(difluoromethyl)cyclopropyl)methyl)-4-methyl-lH-pyrazole-5-carboxamido)picolinamide], the IC50 fell in the range of 100 to 1000 nM.

Regarding `NC(=O)c1cc(NC(=O)c2c(C(F)(F)F)c(C3CC3)nn2CC2CC(OC(F)(F)F)C2)ccn1` (single isomer, unassigned) [SC-219b], the IC50 is at most 100 nM.

On to `Cc1c(C(C)(F)F)nn([C@H](C)C2CC(F)(F)C2)c1C(=O)Nc1ccnc(S(C)(=O)=O)c1` [SC-222b], for which the IC50 fell in the range of 1000 to 10000 nM.

In the case of `CS(=O)(=O)c1cccc(NC(=O)c2cc(C(F)(F)F)nn2CC2CCOCC2)c1` [SC-04, N-(3-methylsulfonylphenyl)-2-(oxan-4-ylmethyl)-5-(trifluoromethyl)pyrazole-3-carboxamide], the IC50 is 1000 to 10000 nM.

For the compound `CS(=O)(=O)c1cccc(NC(=O)c2c(C(F)(F)F)cnn2CC2(F)CCCCC2)c1` [SC-233, 1-((1-fluorocyclohexyl)methyl)-N-(3-(methylsulfonyl)phenyl)-4-(trifluoromethyl)-1H-pyrazole-5-carboxamide], the IC50 was in the range of 100 to 1000 nM.

Take `Cc1c(C(C)(F)F)nn(CC2CCC(F)(F)C2)c1C(=O)Nc1ccnc(S(N)(=O)=O)c1` (centres unmarked) [SC-211, 1-((3,3-difluorocyclopentyl)methyl)-3-(1,1-difluoroethyl)-4-methyl-N-(2-sulfamoylpyridin-4-yl)-1H-pyrazole-5-carboxamide]: the IC50 was at most 100 nM.

As for `CS(=O)(=O)c1cc(NC(=O)c2c(C(F)(F)F)c(C3CC3)nn2CC2CCC(F)(F)CC2)ccn1` [SC-250, 3-cyclopropyl-1-((4,4-difluorocyclohexyl)methyl)-N-(2-(methylsulfonyl)pyridin-4-yl)-4-(trifluoromethyl)-1H-pyrazole-5-carboxamide], the IC50 is at most 100 nM.

On to `CS(=O)(=O)c1cncc(NC(=O)c2c(C(F)(F)F)cnn2CC2CCC(F)(F)CC2)c1` [SC-15, 2-[(4,4-difluorocyclohexyl)methyl]-N-(5-methylsulfonylpyridin-3-yl)-4-(trifluoromethyl)pyrazole-3-carboxamide], for which the IC50 lay within 1000 to 10000 nM.

Regarding `NC(=O)c1cc(NC(=O)c2c(C(F)(F)F)c(C3CC3)nn2CC2CCC(F)(F)C2)ccn1` (single isomer, unassigned) [SC-129a], the IC50 was at most 100 nM.

Take `CS(=O)(=O)c1cccc(NC(=O)c2c(C(F)(F)F)cnn2CC2CCC2)c1` [SC-24, 2-(cyclobutylmethyl)-N-(3-methylsulfonylphenyl)-4-(trifluoromethyl)pyrazole-3-carboxamide]: the IC50 was 100 to 1000 nM.

As for `Cc1c(C(C)(F)F)nn(CC2CCC(F)(F)C2)c1C(=O)Nc1cccc(S(N)(=O)=O)c1` (single isomer, unassigned) [SC-296a], the IC50 is at most 100 nM.

Regarding `NC(=O)c1cc(NC(=O)c2c(C(F)(F)F)c(C3CC3)nn2CC2CC(OC(F)(F)F)C2)ccn1` (single isomer, unassigned) [SC-219a], the IC50 was at most 100 nM.

Take `NC(=O)c1cc(NC(=O)c2c(C(F)(F)F)c(C3CC3)nn2CC2CC(C(F)F)C2)ccn1` (single isomer, unassigned) [SC-221b, 4-(3-cyclopropyl-1-((3-(difluoromethyl)cyclobutyl)methyl)-4-(trifluoromethyl)-1H-pyrazole-5-carboxamido)picolinamide]: the IC50 was at most 100 nM.

With `Cc1c(C(F)(F)F)nn(CC2CCC(F)(F)C2)c1C(=O)Nc1ccnc(C(N)=O)c1` (single isomer, unassigned) [SC-118a], the IC50 was at most 100 nM.

For the compound `CS(=O)(=O)c1cc(NC(=O)c2c(OC(F)F)c(C3CC3)nn2CC2CCOCC2)ccn1` [SC-322, 3-cyclopropyl-4-(difluoromethoxy)-N-(2-(methylsulfonyl)pyridin-4-yl)-1-((tetrahydro-2H-pyran-4-yl)methyl)-1H-pyrazole-5-carboxamide], the IC50 lay in the range of 1000 to 10000 nM.

In the case of `CCOc1nn(CC2CCC(F)(F)C2)c(C(=O)Nc2ccnc(C(N)=O)c2)c1C(F)(F)F` (centres unmarked) [SC-156, 4-(1-((3,3-difluorocyclopentyl)methyl)-3-ethoxy-4-(trifluoromethyl)-1H-pyrazole-5-carboxamido)picolinamide], the IC50 was at most 100 nM.

`CS(=O)(=O)c1cc(NC(=O)c2c(C(F)(F)F)cnn2CC2CCC(F)(F)CC2)ccc1F` [SC-13, 2-[(4,4-difluorocyclohexyl)methyl]-N-(4-fluoro-3-methylsulfonylphenyl)-4-(trifluoromethyl)pyrazole-3-carboxamide]: the IC50 fell in the range of 100 to 1000 nM.

For `C[C@@H]1CC[C@H](Cn2nc(C3CC3)c(C(F)(F)F)c2C(=O)Nc2ccnc(C(N)=O)c2)O1` (single isomer, unassigned) [SC-286b], the IC50 was 100 to 1000 nM.

For `Cc1c(C(C)(F)F)nn(CC2(C)CCCO2)c1C(=O)Nc1ccnc(S(N)(=O)=O)c1` (single isomer, unassigned) [SC-319b], the IC50 was in the range of 1000 to 10000 nM.

In the case of `NC(=O)c1cc(NC(=O)c2c(C(F)(F)F)c(C3CC3)nn2CC2CCCCO2)ccn1` (single isomer, unassigned) [SC-258a], the IC50 was at most 100 nM.

As for `NC(=O)c1cc(NC(=O)c2c(Cl)c(C(F)(F)F)nn2CC2CCC(F)(F)C2)ccn1` (single isomer, unassigned) [SC-160a], the IC50 is at most 100 nM.

As to `NC(=O)c1cc(NC(=O)c2c(C(F)(F)F)c(C(F)F)nn2CC2CC(F)(F)C2)ccc1F` [SC-141, N-(3-carbamoyl-4-fluorophenyl)-1-((3,3-difluorocyclobutyl)methyl)-3-(difluoromethyl)-4-(trifluoromethyl)-1H-pyrazole-5-carboxamide], the IC50 is at most 100 nM.

Turning to `NC(=O)c1cc(NC(=O)c2c(C(F)(F)F)c(C3CC3)nn2C[C@@H]2CCO[C@@H]2C(F)(F)F)ccn1` (single isomer, unassigned) [SC-147b], the IC50 was at most 100 nM.

On to `CS(=O)(=O)c1cc(NC(=O)c2c(C(F)(F)F)c(C3CC3)nn2CC2CC(F)(F)C2)ccn1` [SC-151, 3-cyclopropyl-1-((3,3-difluorocyclobutyl)methyl)-N-(2-(methylsulfonyl)pyridin-4-yl)-4-(trifluoromethyl)-1H-pyrazole-5-carboxamide], for which the IC50 was at most 100 nM.

Regarding `Cc1cc(C(=O)Nc2cccc(S(C)(=O)=O)c2)n(CC2CCCCC2)n1` [SC-11, 2-(cyclohexylmethyl)-5-methyl-N-(3-methylsulfonylphenyl)pyrazole-3-carboxamide], the IC50 fell in the range of 1000 to 10000 nM.

In the case of `Cc1c(OC(F)F)nn(CC2CCC(F)(F)C2)c1C(=O)Nc1ccnc(C(N)=O)c1` (centres unmarked) [SC-196, 4-(1-((3,3-difluorocyclopentyl)methyl)-3-(difluoromethoxy)-4-methyl-1H-pyrazole-5-carboxamido)picolinamide], the IC50 is at most 100 nM.

Turning to `Cc1c(C(C)(F)F)nn(CC2C[C@H]2C(F)(F)F)c1C(=O)Nc1ccnc(C(N)=O)c1` (single isomer, unassigned) [SC-204a], the IC50 is at most 100 nM.

As for `O=C(Nc1cc[nH]c(=O)c1)c1c(C(F)(F)F)cnn1CC1CCCCC1` [SC-30, 1-(cyclohexylmethyl)-N-(2-oxo-1,2-dihydropyridin-4-yl)-4-(trifluoromethyl)-1H-pyrazole-5-carboxamide], the IC50 was 100 to 1000 nM.
